Patent US20180133283A1, “METHOD AND COMPOSITIONS FOR SYNCHRONIZING TIME OF INSEMINATION IN GILTS” (JBS UNITED ANIMAL HEALTH II LLC, priority 2012, published 2018)

Tests used:
Assay type in all cases: in vivo, swine
gilts [1] = test: Example 5: estrus observation; details: raw averages, PTK 2-07
Experimental: For post-treatment estrus detection, gilts were housed in individual pens. Boars were housed in separate rooms, and/or at least 12 m away and downwind. To elicit signs of estrus, a mature boar was walked slowly in the alley in front of the gilts' crates, exposing each test gilt to visual, auditory and olfactory signals from the boar for up to 5 minutes. In keeping with standard practice at commercial farms, while the boar was near the front of the gilt's crate, estrus was tested by an experienced person applying back pressure to the midsection of the gilt combined with side rubbing. Estrus was confirmed when a gilt stood rigidly to the back pressure, with no vocalization and with some indication of an ear reflex. Gilts were not exposed to boars during the first three days after withdrawal of MATRIX® (Day 0 to Day 2). Estrus detection was performed daily on all gilts from Day 3 to Day 7.

gilts [2] = test: Example 5: ovulation monitoring by transrectal ultrasonography after 100, 200 or 400 mcg triptorelin gel at 120 h after MATRIX withdrawal; details: for Percentage ovulated by 48 hours: catheterized subpopulation; for % of Sows Ovulating: raw averages, PTK 2-07
Experimental: All gilts were individually fed MATRIX® as a top-dress for 14 or 15 days at the recommended rate of 15 mg/gilt/day. Gilts were withdrawn from MATRIX® feeding (last top-dress in the morning on Day 0) and allocated to each of the following treatments. Controls were vehicle gel treated (vehicle gel without triptorelin) at 120 (+/−2) hours following MATRIX® withdrawal (last top dress). The other gilts were given 100, 200 or 400 mcg triptorelin as the acetate in a methylcellulose gel formulation 120 (+/−2) hours following MATRIX® withdrawal. The four treatments were:
1. Vehicle gel (VG): vehicle gel without triptorelin at 120 (+/−2) hours after MATRIX® withdrawal.
2. TG 100: 100 mcg (2 mL 50 mcg/mL) triptorelin gel at 120 (+/−2) hours after MATRIX® withdrawal.
3. TG 200: 200 mcg (2 mL 100 mcg/mL) triptorelin gel at 120 (+/−2) hours after MATRIX® withdrawal.
4. TG 400: 400 mcg (2 mL 200 mcg/mL) triptorelin gel at 120 (+/−2) hours after MATRIX® withdrawal.
Ovulation was monitored twice on Day 5 (8 hours and 16 hours post-treatment) and every 8 hours on Day 6 and Day 7 or until ovulation was confirmed or 176 hours following last MATRIX® feeding. The ovulatory status of all gilts was monitored by transrectal ultrasonography. An Aloka 500 ultrasound machine is used for this purpose, with a 7.5 MHz linear array transducer attached to a fixed-angle PVC stabilizing rod to facilitate insertion into the rectum. The transducer and PVC rod are coated with a gynecological lubricant and gently inserted into the rectum until the ovaries can be visualized, one at a time. The diameters of the three largest follicles were recorded (to the nearest 0.1 mm) at each scanning. A gilt was declared to have ovulated when the number of large follicles 6.5 mm) fell to less than 3.
(§1) A single 2 mL dose of triptorelin gel or vehicle gel was deposited within approximately 1-2 cm posterior to the cervix with a catheter similar to those used for artificial insemination. The dose was delivered using a standard multi-dose applicator attached to the catheter. A new disposable sheath, which surrounds the catheter, was used for each gilt.

gilts [3] = test: Example 1: estrus observation (boar exposure, back pressure) after triptorelin gel; details: raw averages; PTK 1-07 (rep 3); 200 mcg T at 120 h
Experimental: (§2) All gilts were individually fed MATRIX® as a top-dress for 14 days at the recommended rate of 15 mg/gilt/day. Gilts were withdrawn from MATRIX® feeding (last top feed in the morning on Day 0) and allotted to treatments. Controls were treated with a 1.2% methylcellulose gel formulation without triptorelin at 96 hours following MATRIX® withdrawal (last top-dress). The remaining gilts received 200 mcg triptorelin, as the acetate, in a 1.2% methylcellulose gel formulation intravaginally at various times after MATRIX® withdrawal. The four treatments were: 1) vehicle gel (VG) treatment at 96 hours after MATRIX® withdrawal, 2) triptorelin gel (TG) treatment at 96 hours after MATRIX® withdrawal, 3) TG treatment at 120 hours after MATRIX® withdrawal and 4) TG treatment at 144 hours after MATRIX® withdrawal. All gilts were monitored for their estrous and ovulatory status as described below. Gilts included in replicate 1 were selected from terminal line commercial production gilts located in grow/finish barns. Sexual maturity, as indicated by one or more estrous periods, was not verified prior to the start of MATRIX® feeding. Gilts included in replicate 2 were selected from a maternal line gilt population. Sexual maturity was verified by at least one estrous period verified and recorded prior to starting MATRIX® feeding.
For post-treatment estrus detection, gilts were housed in individual pens. […]

serum LH = test: Example 5: blood collection and serum LH analysis (LH surge); details: for Gilts, which displayed a LH surge: number of gilts
Experimental: A catheter was inserted non-surgically into the jugular vein (Kraeling et al. 1982) of a subpopulation of gilts in each treatment group (vehicle gel, n=8; 100 mcg triptorelin, n=6; 200 mcg triptorelin, n=7 and 400 mcg triptorelin, n=6). Ten mL blood samples were collected every 15 minutes for one hour prior to treatment, immediately following treatment (0) and at 0.5, 1, 2, 4, 6, 12, 18, 24, 36 and 48 hours after treatment. Blood samples were maintained at 4° C. until centrifuged at 800×g for 15 minutes within 12 hours of collection. The resulting serum was stored frozen until assayed for LH using validated procedures for pig serum (Kesner et al., 1987 and Kraeling et al., 1982). Onset, duration, and magnitude of the LH surge were analyzed. The LH data were analyzed with the General Linear Models procedure of SAS. Differences between treatments were tested on least squares means estimates using the T test at P<0.05. Onset of the LH surge is when serum LH concentration is greater than or equal to two standard deviations of the mean of the pre-treatment serum LH concentrations. Duration of the LH surge is the period between onset and when serum LH concentration is again less than or equal to two standard deviations of the mean of the pre-treatment serum LH concentrations. Magnitude of the LH surge is the maximum serum LH concentration reached during the LH surge.

gilts [4] = test: Example 1: ovulation monitoring by transrectal ultrasonography after 200 mcg triptorelin gel intravaginally at 96, 120 or 144 h after MATRIX withdrawal; details: raw averages, PTK 1-07 (rep 3), 200 mcg T
Experimental: as §2
The ovulatory status of all gilts was monitored by transrectal ultrasonography. For replicate one, ovulation was monitored two times on Day 5, then three times a day from Day 6 to Day 8. For replicate two, ovulation was monitored three times a day from Day 5 to Day 8. An Aloka 500 ultrasound machine with a 7.5 MHz linear array transducer attached to a fixed-angle PVC stabilizing rod to facilitate insertion into the rectum was used for this purpose. The transducer and PVC rod were coated with a gynecological lubricant and gently inserted into the rectum until the ovaries were visualized, one at a time. The diameters of the three largest follicles were recorded (to the nearest 0.1 mm) at each scanning. A gilt was declared to have ovulated when the number of large follicles (≥6.5 mm) fell to less than 3.
as §1
Data were analyzed using the Mixed Models procedures of SAS. Models included main effects of time of treatment following the last feeding of MATRIX®, replicate, and treatment by replicate interaction. Differences between treatments were tested on least squares means estimates using the T test at P<0.05. Data for analysis were tested for assumptions of data normality.

[5] = relative to time of triptorelin gel treatment, 200 mcg T

In the case of CC(C)C[C@H](NC(=O)[C@@H](Cc1c[nH]c2ccccc12)NC(=O)[C@H](Cc1ccc(O)cc1)NC(=O)[C@H](CO)NC(=O)[C@H](Cc1c[nH]c2ccccc12)NC(=O)[C@H](Cc1c[nH]cn1)NC(=O)[C@@H]1CCC(=O)N1)C(=O)N[C@@H](CCCNC(=N)N)C(=O)N1CCC[C@H]1C(=O)NCC(N)=O [T, pGlu-His-Trp-Ser-Tyr-D-Trp-Leu-Arg-Pro-Gly-NH2], the “Estrous Expression (%)” value (gilts [1]; 100 mcg T at 120 h) is reported as 75.0%, the “Estrous Expression (%)” value (gilts [1]; 200 mcg T at 120 h) is reported as 81.0% and the “Percentage ovulated by 48 hours” value (gilts [2]; 100 mcg T (n = 6)) is reported as 100%. The “Percentage ovulated by 48 hours” value (gilts [2]; 200 mcg T (n = 7)) was 100%, the “Percentage ovulated by 48 hours” value (gilts [2]; 400 mcg T (n = 6)) was 100% and the “% of Sows Ovulating” value (gilts [2]; 100 mcg T, 128 h post-MATRIX, 8 h post-T) was 0.0%. The “% of Sows Ovulating” value (gilts [2]; 100 mcg T, 136 h post-MATRIX, 16 h post-T) was 5.0%, the “% of Sows Ovulating” value (gilts [2]; 100 mcg T, 144 h post-MATRIX, 24 h post-T) was 20.0% and the “% of Sows Ovulating” value (gilts [2]; 100 mcg T, 152 h post-MATRIX, 32 h post-T) was 30.0%. The “% of Sows Ovulating” value (gilts [2]; 100 mcg T, 160 h post-MATRIX, 40 h post-T) was 60.0%, the “% of Sows Ovulating” value (gilts [2]; 100 mcg T, 168 h post-MATRIX, 48 h post-T) was 95.0% and the “% of Sows Ovulating” value (gilts [2]; 100 mcg T, 176 h post-MATRIX, 56 h post-T) was 100.0%. For the same compound, the “% of Sows Ovulating” value (gilts [2]; 200 mcg T, 128 h post-MATRIX, 8 h post-T) was 0.0%, the “% of Sows Ovulating” value (gilts [2]; 200 mcg T, 136 h post-MATRIX, 16 h post-T) was 0.0% and the “% of Sows Ovulating” value (gilts [2]; 400 mcg T, 128 h post-MATRIX, 8 h post-T) was 4.5%. The “% of Sows Ovulating” value (gilts [2]; 400 mcg T, 136 h post-MATRIX, 16 h post-T) was 9.1%, the “% of Sows Ovulating” value (gilts [2]; 400 mcg T, 168 h post-MATRIX, 48 h post-T) was 100.0% and the “% of Sows Ovulating” value (gilts [2]; 400 mcg T, 176 h post-MATRIX, 56 h post-T) was 100.0%. For the same compound, the “Estrous Expression (%)” value (gilts [3]) was 100.0%, the “Duration of LH surge” value (serum LH; 200 mcg T) was 18 and the “Onset of LH surge” value (serum LH; LS mean ± SE, relative to time of triptorelin gel treatment, 100 mcg T) was 4 ± 3. The “Onset of LH surge” value (serum LH; LS mean ± SE, relative to time of triptorelin gel treatment, 400 mcg T) was 4 ± 4, the “Gilts, which displayed a LH surge” value (serum LH; 100 mcg T (n = 6)) was 4 and the “Gilts, which displayed a LH surge” value (serum LH; 200 mcg T (n = 7)) was 1. For the same compound, the “Gilts, which displayed a LH surge” value (serum LH; 400 mcg T (n = 6)) was 5, the “Onset of LH surge” value (serum LH; [5]) was 0.5 and the Time of maximum LH conc. (serum LH; [5]) was 4 h. For the same compound, the “% of Sows Ovulating” value (gilts [4]; 128 h post-MATRIX, 8 h post-T) was 0.0%, the “% of Sows Ovulating” value (gilts [4]; 136 h post-MATRIX, 16 h post-T) was 10.0% and the “% of Sows Ovulating” value (gilts [4]; 144 h post-MATRIX, 24 h post-T) was 30.0%. For the same compound, the “% of Sows Ovulating” value (gilts [4]; 152 h post-MATRIX, 32 h post-T) was 70.0%, the “% of Sows Ovulating” value (gilts [4]; 160 h post-MATRIX, 40 h post-T) was 80.0% and the “% of Sows Ovulating” value (gilts [4]; 168 h post-MATRIX, 48 h post-T) was 90.0%. For the same compound, the “% of Sows Ovulating” value (gilts [4]; 176 h post-MATRIX, 56 h post-T) was 100.0%.
